Measurements taken from doi:10.1101/2023.12.04.569845, “Identification of 4-(6-((2-methoxyphenyl)amino)pyrazin-2-yl)benzoic acids as CSNK2A inhibitors with antiviral activity and improved selectivity over PIM3” (bioRxiv, 2023).
Where two headings read alike, the source gives them in different places. Each block holds one molecule with its values, some of them ahead of it.

What was measured:
Experiment in all cases: biochemical
Parameters in all cases: Thermal shift (DSF, SYPRO Orange) Tm shift of recombinant kinase domains at 10 uM compound
AURKB = AURKB (Homo sapiens, UniProt Q96GD4)
BRPF1 = biological target: T1, BRPF1 (Homo sapiens, UniProt P55201)
T1 sequence (P55201 1-1214): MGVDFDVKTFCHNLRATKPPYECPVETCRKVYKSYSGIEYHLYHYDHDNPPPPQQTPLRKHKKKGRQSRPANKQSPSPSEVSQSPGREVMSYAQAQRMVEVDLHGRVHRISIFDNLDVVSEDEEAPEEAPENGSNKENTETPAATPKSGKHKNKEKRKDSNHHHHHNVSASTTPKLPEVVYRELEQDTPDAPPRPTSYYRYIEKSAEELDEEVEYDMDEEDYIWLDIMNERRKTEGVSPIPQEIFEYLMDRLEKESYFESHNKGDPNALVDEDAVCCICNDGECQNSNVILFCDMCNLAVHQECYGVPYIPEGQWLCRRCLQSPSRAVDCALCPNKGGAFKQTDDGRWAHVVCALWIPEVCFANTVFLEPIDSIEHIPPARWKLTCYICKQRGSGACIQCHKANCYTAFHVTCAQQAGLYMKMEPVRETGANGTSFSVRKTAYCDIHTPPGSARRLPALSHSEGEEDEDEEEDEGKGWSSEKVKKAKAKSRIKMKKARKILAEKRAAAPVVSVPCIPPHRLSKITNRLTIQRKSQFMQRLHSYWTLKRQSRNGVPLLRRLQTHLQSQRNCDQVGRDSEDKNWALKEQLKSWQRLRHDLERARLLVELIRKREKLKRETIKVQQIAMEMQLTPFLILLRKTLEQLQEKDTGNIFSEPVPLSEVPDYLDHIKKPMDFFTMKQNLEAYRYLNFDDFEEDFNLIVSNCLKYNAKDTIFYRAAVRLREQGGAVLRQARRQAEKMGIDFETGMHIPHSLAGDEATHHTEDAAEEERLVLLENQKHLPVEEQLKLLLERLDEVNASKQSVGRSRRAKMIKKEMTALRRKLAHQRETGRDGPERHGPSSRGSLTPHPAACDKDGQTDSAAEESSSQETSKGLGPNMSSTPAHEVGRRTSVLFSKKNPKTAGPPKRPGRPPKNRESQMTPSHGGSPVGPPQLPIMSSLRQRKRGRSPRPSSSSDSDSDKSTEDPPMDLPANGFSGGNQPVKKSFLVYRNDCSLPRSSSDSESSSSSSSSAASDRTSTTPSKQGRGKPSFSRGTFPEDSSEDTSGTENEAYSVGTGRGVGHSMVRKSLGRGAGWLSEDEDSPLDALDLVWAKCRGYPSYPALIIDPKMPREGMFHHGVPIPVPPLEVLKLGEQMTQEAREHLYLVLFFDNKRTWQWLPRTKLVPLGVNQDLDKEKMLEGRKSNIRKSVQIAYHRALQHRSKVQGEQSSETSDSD

EPHA5 = EPHA5 (Homo sapiens, UniProt P54756)
EPHB1 = biological target: T2, EPHB1 (Homo sapiens, UniProt P54762)
T2 sequence (P54762 1-984): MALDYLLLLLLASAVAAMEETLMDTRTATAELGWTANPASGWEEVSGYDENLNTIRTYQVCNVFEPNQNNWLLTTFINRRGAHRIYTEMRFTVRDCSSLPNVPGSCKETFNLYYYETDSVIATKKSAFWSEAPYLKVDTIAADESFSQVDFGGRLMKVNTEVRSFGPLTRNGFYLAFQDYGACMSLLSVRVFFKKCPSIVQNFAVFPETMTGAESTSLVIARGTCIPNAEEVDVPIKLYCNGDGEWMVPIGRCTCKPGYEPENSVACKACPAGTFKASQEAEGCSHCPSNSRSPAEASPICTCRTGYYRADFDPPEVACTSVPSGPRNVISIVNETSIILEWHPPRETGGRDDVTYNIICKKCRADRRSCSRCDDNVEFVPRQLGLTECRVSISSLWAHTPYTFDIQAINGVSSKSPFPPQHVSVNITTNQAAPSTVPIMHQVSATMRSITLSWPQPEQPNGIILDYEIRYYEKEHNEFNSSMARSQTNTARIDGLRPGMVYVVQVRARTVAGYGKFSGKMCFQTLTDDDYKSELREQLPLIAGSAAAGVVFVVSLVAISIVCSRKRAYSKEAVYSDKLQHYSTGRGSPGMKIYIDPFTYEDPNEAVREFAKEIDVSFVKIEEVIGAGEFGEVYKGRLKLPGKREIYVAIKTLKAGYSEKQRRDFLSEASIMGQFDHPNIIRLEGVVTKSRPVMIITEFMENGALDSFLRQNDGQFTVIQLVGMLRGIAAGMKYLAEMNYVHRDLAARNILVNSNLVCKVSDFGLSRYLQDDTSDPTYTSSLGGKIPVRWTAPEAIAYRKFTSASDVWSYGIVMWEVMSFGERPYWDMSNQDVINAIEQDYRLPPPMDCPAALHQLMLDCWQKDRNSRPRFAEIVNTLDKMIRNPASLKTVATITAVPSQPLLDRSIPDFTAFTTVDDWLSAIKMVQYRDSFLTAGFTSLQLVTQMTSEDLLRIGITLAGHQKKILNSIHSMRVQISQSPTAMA

FGFR1 = FGFR1 (Homo sapiens, UniProt P11362)
MAPKAPK2 = MAPKAPK2 (Homo sapiens, UniProt P49137)
MST4 = biological target: T3, MST4 (Homo sapiens, UniProt Q9P289)
T3 construct: gene STK26
T3 sequence (Q9P289 whole entry): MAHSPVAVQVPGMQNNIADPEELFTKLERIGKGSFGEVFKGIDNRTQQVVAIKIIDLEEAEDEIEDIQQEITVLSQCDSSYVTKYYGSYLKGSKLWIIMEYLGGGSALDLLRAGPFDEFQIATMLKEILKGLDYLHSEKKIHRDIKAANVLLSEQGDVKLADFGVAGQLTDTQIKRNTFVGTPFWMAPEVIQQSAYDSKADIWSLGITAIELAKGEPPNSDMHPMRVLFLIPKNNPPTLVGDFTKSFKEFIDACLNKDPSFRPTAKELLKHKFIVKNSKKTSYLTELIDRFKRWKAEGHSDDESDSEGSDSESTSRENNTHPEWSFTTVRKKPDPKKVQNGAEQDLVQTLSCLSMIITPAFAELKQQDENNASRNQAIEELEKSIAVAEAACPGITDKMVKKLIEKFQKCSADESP

Chain of EPHA5 (P54756 whole entry): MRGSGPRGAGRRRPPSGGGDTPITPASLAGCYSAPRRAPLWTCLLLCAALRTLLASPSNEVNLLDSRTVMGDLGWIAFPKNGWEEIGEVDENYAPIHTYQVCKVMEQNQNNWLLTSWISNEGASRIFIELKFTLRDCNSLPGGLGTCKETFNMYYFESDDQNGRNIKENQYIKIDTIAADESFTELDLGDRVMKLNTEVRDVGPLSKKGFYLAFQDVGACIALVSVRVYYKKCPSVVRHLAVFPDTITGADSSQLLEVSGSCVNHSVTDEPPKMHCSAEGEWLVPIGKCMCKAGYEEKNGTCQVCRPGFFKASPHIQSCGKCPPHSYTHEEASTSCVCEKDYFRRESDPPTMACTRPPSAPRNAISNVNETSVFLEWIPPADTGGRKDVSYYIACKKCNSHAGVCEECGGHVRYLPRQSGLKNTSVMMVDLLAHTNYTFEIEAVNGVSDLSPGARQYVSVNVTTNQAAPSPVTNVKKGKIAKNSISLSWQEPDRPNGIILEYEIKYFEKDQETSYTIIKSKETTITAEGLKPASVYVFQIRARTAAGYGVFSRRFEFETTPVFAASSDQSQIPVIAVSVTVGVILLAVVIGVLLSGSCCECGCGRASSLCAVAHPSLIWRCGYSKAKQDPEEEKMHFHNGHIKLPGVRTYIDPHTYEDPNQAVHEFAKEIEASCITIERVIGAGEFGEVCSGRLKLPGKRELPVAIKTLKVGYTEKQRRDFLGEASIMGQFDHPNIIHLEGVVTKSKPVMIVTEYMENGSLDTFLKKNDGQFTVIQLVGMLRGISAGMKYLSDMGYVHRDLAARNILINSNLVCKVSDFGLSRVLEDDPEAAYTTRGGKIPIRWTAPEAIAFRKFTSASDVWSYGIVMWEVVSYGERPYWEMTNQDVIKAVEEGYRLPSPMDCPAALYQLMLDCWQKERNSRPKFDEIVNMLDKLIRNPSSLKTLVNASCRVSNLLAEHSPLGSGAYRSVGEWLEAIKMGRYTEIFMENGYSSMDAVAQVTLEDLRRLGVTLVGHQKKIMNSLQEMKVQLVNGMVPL
Chain of FGFR1 (P11362 whole entry): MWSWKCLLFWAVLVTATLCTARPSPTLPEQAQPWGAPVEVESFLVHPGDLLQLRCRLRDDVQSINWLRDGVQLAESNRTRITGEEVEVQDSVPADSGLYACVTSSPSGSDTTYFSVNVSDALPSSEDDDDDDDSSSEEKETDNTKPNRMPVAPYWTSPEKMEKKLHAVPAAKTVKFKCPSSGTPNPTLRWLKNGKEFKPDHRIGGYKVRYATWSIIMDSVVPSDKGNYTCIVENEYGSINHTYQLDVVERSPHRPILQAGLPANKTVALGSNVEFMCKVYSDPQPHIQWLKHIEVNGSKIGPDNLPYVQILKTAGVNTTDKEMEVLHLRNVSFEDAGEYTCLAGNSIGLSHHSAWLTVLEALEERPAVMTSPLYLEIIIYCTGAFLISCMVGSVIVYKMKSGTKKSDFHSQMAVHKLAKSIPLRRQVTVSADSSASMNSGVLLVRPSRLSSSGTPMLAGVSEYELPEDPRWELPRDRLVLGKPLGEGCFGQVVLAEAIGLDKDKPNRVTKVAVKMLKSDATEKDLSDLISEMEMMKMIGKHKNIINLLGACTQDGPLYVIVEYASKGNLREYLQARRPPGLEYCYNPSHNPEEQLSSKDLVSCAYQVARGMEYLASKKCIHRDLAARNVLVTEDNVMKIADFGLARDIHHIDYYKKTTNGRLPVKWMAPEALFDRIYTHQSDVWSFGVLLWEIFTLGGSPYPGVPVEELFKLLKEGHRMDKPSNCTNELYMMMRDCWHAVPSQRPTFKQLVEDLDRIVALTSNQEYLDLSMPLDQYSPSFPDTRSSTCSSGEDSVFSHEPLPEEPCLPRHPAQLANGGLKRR
Chain of MAPKAPK2 (P49137 whole entry): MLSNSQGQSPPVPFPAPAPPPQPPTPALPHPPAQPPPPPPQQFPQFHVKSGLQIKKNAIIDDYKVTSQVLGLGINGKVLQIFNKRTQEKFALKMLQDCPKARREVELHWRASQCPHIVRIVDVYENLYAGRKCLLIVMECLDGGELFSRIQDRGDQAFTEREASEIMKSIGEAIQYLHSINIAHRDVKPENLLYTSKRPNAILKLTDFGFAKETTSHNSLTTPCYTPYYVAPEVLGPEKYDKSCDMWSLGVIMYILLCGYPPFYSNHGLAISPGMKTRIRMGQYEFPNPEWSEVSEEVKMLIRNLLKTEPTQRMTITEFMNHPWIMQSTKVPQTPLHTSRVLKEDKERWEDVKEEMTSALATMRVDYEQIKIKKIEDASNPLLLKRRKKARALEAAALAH
Chain of AURKB (Q96GD4 whole entry): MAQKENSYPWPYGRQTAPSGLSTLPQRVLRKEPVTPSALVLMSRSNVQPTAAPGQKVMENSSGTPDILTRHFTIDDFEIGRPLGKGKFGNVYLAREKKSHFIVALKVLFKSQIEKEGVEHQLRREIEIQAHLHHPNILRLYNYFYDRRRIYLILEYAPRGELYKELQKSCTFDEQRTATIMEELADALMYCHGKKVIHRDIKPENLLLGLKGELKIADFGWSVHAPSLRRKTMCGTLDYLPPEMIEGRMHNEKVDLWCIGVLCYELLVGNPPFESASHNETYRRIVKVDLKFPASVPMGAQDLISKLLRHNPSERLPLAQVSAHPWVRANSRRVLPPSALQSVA

- ΔTm at 10 µM (AURKB; read-out: 7c): 2 °C
- ΔTm at 10 µM (BRPF1; read-out: 7c): 0 °C
- ΔTm at 10 µM (EPHA5; read-out: 7c): 1 °C
- ΔTm at 10 µM (EPHB1; read-out: 7c): 1 °C
- ΔTm at 10 µM (FGFR1; read-out: 7c): 0 °C
- ΔTm at 10 µM (MAPKAPK2; read-out: 7c): 0 °C
- ΔTm at 10 µM (MST4; read-out: 7c): -1 °C
Structure (SMILES): COc1ccc(OC(C)C)cc1Nc1cncc(-c2ccc(C(=O)O)cc2)n1 [7c]

- ΔTm at 10 µM (AURKB; read-out: 6c): 4 °C
- ΔTm at 10 µM (BRPF1; read-out: 6c): -1 °C
- ΔTm at 10 µM (EPHA5; read-out: 6c): 2 °C
- ΔTm at 10 µM (EPHB1; read-out: 6c): 2 °C
- ΔTm at 10 µM (FGFR1; read-out: 6c): 0 °C
- ΔTm at 10 µM (MAPKAPK2; read-out: 6c): -1 °C
- ΔTm at 10 µM (MST4; read-out: 6c): -4 °C
Structure (SMILES): CC(C)Oc1ccc2ccn(-c3cncc(-c4ccc(C(=O)O)cc4)n3)c2c1 [6c]

- ΔTm at 10 µM (AURKB; read-out: 2): 4 °C
- ΔTm at 10 µM (BRPF1; read-out: 2): 2 °C
- ΔTm at 10 µM (EPHA5; read-out: 2): 2 °C
- ΔTm at 10 µM (EPHB1; read-out: 2): 2 °C
- ΔTm at 10 µM (FGFR1; read-out: 2): 1 °C
- ΔTm at 10 µM (MAPKAPK2; read-out: 2): 0 °C
- ΔTm at 10 µM (MST4; read-out: 2): 3 °C
Structure (SMILES): CC(C)Nc1ccc2cnn(-c3cncc(-c4ccc(C(=O)O)cc4)n3)c2c1 [compound 2, 2]
